Measured values reported in PubChem BioAssay (NCI).
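Five compound concentrations were applied to cells in 96-well plates for 48 hours; endpoints were derived by simple linear interpolation of the resulting dose-response curve. TGI: total growth inhibition.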

Key:
Assay in all cases: growth of human tumour cells (NCI), 48 h
OVCAR-8 ovarian = tested on: OVCAR-8 ovarian
HT29 colon = tested on: HT29 colon
NCI-H460 lung = tested on: NCI-H460 lung
A498 renal = tested on: A498 renal
SF-295 CNS = tested on: SF-295 CNS
COLO 205 colon = tested on: COLO 205 colon
KM12 colon = tested on: KM12 colon
OVCAR-4 ovarian = tested on: OVCAR-4 ovarian
HCT-116 colon = tested on: HCT-116 colon
RXF 393 renal = tested on: RXF 393 renal
OVCAR-3 ovarian = tested on: OVCAR-3 ovarian
IGROV1 ovarian = tested on: IGROV1 ovarian
SF-268 CNS = tested on: SF-268 CNS
SF-539 CNS = tested on: SF-539 CNS
CAKI-1 renal = tested on: CAKI-1 renal
SK-MEL-2 melanoma = tested on: SK-MEL-2 melanoma
HOP-62 NSCLC = tested on: HOP-62 NSCLC
EKVX NSCLC = tested on: EKVX NSCLC
ACHN renal = tested on: ACHN renal
TK-10 renal = tested on: TK-10 renal

Nc1c(C(=O)Nc2ccc(C3=NCCN3)cc2)cccc1C(=O)Nc1ccc(C2=NCCN2)cc1
TGI (OVCAR-8 ovarian): > 100 µM
TGI (HT29 colon): > 100 µM
TGI (NCI-H460 lung): > 100 µM
TGI (A498 renal): > 100 µM
TGI (SF-295 CNS): > 100 µM
TGI (COLO 205 colon): > 100 µM
TGI (KM12 colon): > 100 µM
TGI (OVCAR-4 ovarian): > 100 µM
TGI (HCT-116 colon): > 100 µM
TGI (RXF 393 renal): > 100 µM
TGI (OVCAR-3 ovarian): > 100 µM
TGI (IGROV1 ovarian): > 100 µM
TGI (SF-268 CNS): > 100 µM
TGI (SF-539 CNS): > 100 µM
TGI (CAKI-1 renal): > 100 µM
TGI (SK-MEL-2 melanoma): > 100 µM

N=[N+]=CC(=O)CCC(NC(=O)C(CCC(=O)C=[N+]=N)NC(=O)CCC(N)C(=O)O)C(=O)O (stereo not given)
TGI (OVCAR-8 ovarian): > 100 µM
TGI (HT29 colon): > 100 µM
TGI (NCI-H460 lung): > 100 µM
TGI (A498 renal): > 100 µM
TGI (SF-295 CNS): > 100 µM
TGI (COLO 205 colon): > 100 µM
TGI (KM12 colon): > 31.6 µM
TGI (HOP-62 NSCLC): > 100 µM
TGI (OVCAR-4 ovarian): > 100 µM
TGI (HCT-116 colon): > 100 µM
TGI (RXF 393 renal): > 100 µM
TGI (OVCAR-3 ovarian): > 100 µM
TGI (IGROV1 ovarian): > 100 µM
TGI (SF-268 CNS): > 100 µM
TGI (SF-539 CNS): > 100 µM
TGI (CAKI-1 renal): > 100 µM
TGI (SK-MEL-2 melanoma): > 100 µM
TGI (EKVX NSCLC): > 100 µM

COC(=O)c1cc2cc3c(c(O)c2c(=O)o1)O[C@@]1(Oc2c(O)c4c(c(O)c2[C@H]1OC1CC(OC)C(O)C(C)O1)C(=O)C=C(OC)C4=O)[C@H](O)C3 (stereo not given in full)
TGI (OVCAR-8 ovarian): 10.7 µM
TGI (HT29 colon): > 20.3 µM
TGI (ACHN renal): 9.19 µM
TGI (NCI-H460 lung): > 21.6 µM
TGI (SF-295 CNS): > 29.6 µM
TGI (COLO 205 colon): 14.1 µM
TGI (KM12 colon): 9.51 µM
TGI (HOP-62 NSCLC): 5.37 µM
TGI (OVCAR-4 ovarian): 2.89 µM
TGI (HCT-116 colon): > 20.8 µM
TGI (RXF 393 renal): 3.25 µM
TGI (OVCAR-3 ovarian): > 23.4 µM
TGI (TK-10 renal): 17.5 µM
TGI (IGROV1 ovarian): 7.17 µM
TGI (SF-268 CNS): 5.19 µM
TGI (SF-539 CNS): 1.97 µM
TGI (CAKI-1 renal): 3.2 µM
TGI (SK-MEL-2 melanoma): 10.5 µM
TGI (EKVX NSCLC): 12.3 µM

CN(Cc1cccc2ccccc12)Cc1cccc2ccccc12
TGI (OVCAR-8 ovarian): > 100 µM
TGI (HT29 colon): > 100 µM
TGI (ACHN renal): > 100 µM
TGI (NCI-H460 lung): > 100 µM
TGI (A498 renal): 80.1 µM
TGI (SF-295 CNS): > 100 µM
TGI (COLO 205 colon): 35.2 µM
TGI (KM12 colon): > 100 µM
TGI (HOP-62 NSCLC): > 100 µM
TGI (OVCAR-4 ovarian): > 100 µM
TGI (HCT-116 colon): 55.8 µM
TGI (RXF 393 renal): > 100 µM
TGI (OVCAR-3 ovarian): > 100 µM
TGI (TK-10 renal): > 100 µM
TGI (IGROV1 ovarian): > 100 µM
TGI (SF-268 CNS): > 100 µM
TGI (SF-539 CNS): 59.6 µM
TGI (CAKI-1 renal): > 100 µM
TGI (SK-MEL-2 melanoma): 31 µM
TGI (EKVX NSCLC): > 100 µM

C1CSC(=[N+]2CC[N+](=C3SCCS3)CC2)S1
TGI (OVCAR-8 ovarian): > 100 µM
TGI (HT29 colon): > 100 µM
TGI (ACHN renal): > 100 µM
TGI (NCI-H460 lung): > 100 µM
TGI (A498 renal): > 100 µM
TGI (SF-295 CNS): > 100 µM
TGI (COLO 205 colon): > 100 µM
TGI (KM12 colon): > 100 µM
TGI (HOP-62 NSCLC): > 100 µM
TGI (OVCAR-4 ovarian): > 100 µM
TGI (HCT-116 colon): > 100 µM
TGI (RXF 393 renal): > 100 µM
TGI (OVCAR-3 ovarian): > 100 µM
TGI (TK-10 renal): > 100 µM
TGI (IGROV1 ovarian): > 100 µM
TGI (SF-268 CNS): > 100 µM
TGI (SF-539 CNS): > 100 µM
TGI (CAKI-1 renal): > 100 µM
TGI (SK-MEL-2 melanoma): > 100 µM
TGI (EKVX NSCLC): > 100 µM

C/C(=N\NC(=S)N1CCN(C)CC1)c1nc2ncccc2[nH]1
TGI (OVCAR-8 ovarian): > 100 µM
TGI (HT29 colon): > 100 µM
TGI (ACHN renal): > 100 µM
TGI (NCI-H460 lung): > 100 µM
TGI (A498 renal): > 100 µM
TGI (SF-295 CNS): > 100 µM
TGI (COLO 205 colon): > 100 µM
TGI (KM12 colon): > 100 µM
TGI (HOP-62 NSCLC): > 100 µM
TGI (OVCAR-4 ovarian): > 100 µM
TGI (OVCAR-3 ovarian): > 100 µM
TGI (TK-10 renal): > 100 µM
TGI (IGROV1 ovarian): > 100 µM
TGI (SF-268 CNS): > 100 µM
TGI (SF-539 CNS): > 100 µM
TGI (CAKI-1 renal): > 100 µM
TGI (EKVX NSCLC): > 100 µM

CC(C)(C)NCC(O)c1ccc(O)c(CO)n1 (stereo not given)
TGI (OVCAR-8 ovarian): > 100 µM
TGI (HT29 colon): > 100 µM
TGI (ACHN renal): > 100 µM
TGI (NCI-H460 lung): > 100 µM
TGI (A498 renal): > 100 µM
TGI (SF-295 CNS): > 100 µM
TGI (COLO 205 colon): > 100 µM
TGI (KM12 colon): > 100 µM
TGI (HOP-62 NSCLC): > 100 µM
TGI (OVCAR-4 ovarian): > 100 µM
TGI (HCT-116 colon): > 100 µM
TGI (RXF 393 renal): > 100 µM
TGI (OVCAR-3 ovarian): > 100 µM
TGI (TK-10 renal): > 100 µM
TGI (IGROV1 ovarian): > 100 µM
TGI (SF-268 CNS): > 100 µM
TGI (SF-539 CNS): > 100 µM
TGI (CAKI-1 renal): > 100 µM
TGI (SK-MEL-2 melanoma): > 100 µM
TGI (EKVX NSCLC): > 100 µM
